Experimental data: PubChem BioAssay AID248 (DTP/NCI, 2004)
Values joined by “and” are separate entries in the source; they are usually repeats but may differ in a detail not shown here. Equal entries are not always repeated. Inconclusive results and toxic doses are left out. Cut-off read from the data, not from the text of the source: active = T/C of 150% or more; inactive = T/C below 125%.

Test system: L1210 leukemia ip in BDF1 mice, survival T/C
Experiment: NCI In Vivo Anticancer Drug Screen. Data for tumor model L1210 Leukemia (intraperitoneal) in B6D2F1 (BDF1) mice
Conditions: endpoint: mean survival time, higher = longer survival
Outline: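 Tumor cells were implanted, animals were treated, and survival was followed. The result divides the treated measurement by the vehicle-control measurement.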

[1] = dose: 100.0 mg/kg/injection, schedule: Q01DX009 (ip), vehicle: Klucel (hydroxypropylcellulose) (HPC)
[2] = dose: 100.0 mg/kg/injection, schedule: Q04DX003 (ip), vehicle: Klucel (hydroxypropylcellulose) (HPC)
[3] = dose: 200.0 mg/kg/injection, schedule: Q01DX009 (ip), vehicle: Klucel (hydroxypropylcellulose) (HPC)
[4] = dose: 200.0 mg/kg/injection, schedule: Q04DX003 (ip), vehicle: Klucel (hydroxypropylcellulose) (HPC)
[5] = dose: 400.0 mg/kg/injection, schedule: Q01DX009 (ip), vehicle: Klucel (hydroxypropylcellulose) (HPC)
[6] = dose: 400.0 mg/kg/injection, schedule: Q04DX003 (ip), vehicle: Klucel (hydroxypropylcellulose) (HPC)
[7] = dose: 100.0 mg/kg/injection, schedule: Q01DX001 (ip), vehicle: carboxymethylcellulose (CMC)
[8] = dose: 200.0 mg/kg/injection, schedule: Q01DX001 (ip), vehicle: carboxymethylcellulose (CMC)
[9] = dose: 400.0 mg/kg/injection, schedule: Q01DX001 (ip), vehicle: carboxymethylcellulose (CMC)
[10] = dose: 5.0 mg/kg/injection, schedule: Q01DX001 (ip), vehicle: saline
[11] = dose: 10.0 mg/kg/injection, schedule: Q01DX001 (ip), vehicle: saline
[12] = dose: 20.0 mg/kg/injection, schedule: Q01DX001 (ip), vehicle: saline

Measured: T/C

N=c1c2ncn(Cc3cccc(C(F)(F)F)c3)c2ncn1O
inactive: dose: 0.78 mg/kg/injection, schedule: Q01DX009 (ip), vehicle: Klucel (hydroxypropylcellulose) (HPC) 104 % of control | dose: 1.56 mg/kg/injection, schedule: Q01DX009 (ip), vehicle: Klucel (hydroxypropylcellulose) (HPC) 92 % of control | dose: 1.56 mg/kg/injection, schedule: Q04DX003 (ip), vehicle: Klucel (hydroxypropylcellulose) (HPC) 92 % of control | dose: 3.12 mg/kg/injection, schedule: Q01DX009 (ip), vehicle: Klucel (hydroxypropylcellulose) (HPC) 95 % of control | dose: 3.12 mg/kg/injection, schedule: Q04DX003 (ip), vehicle: Klucel (hydroxypropylcellulose) (HPC) 102 % of control

O=c1[nH]cnc2c1ncn2CCCCc1ccccc1
inactive: dose: 100.0 mg/kg/injection, schedule: Q04DX002 (ip), vehicle: Klucel (hydroxypropylcellulose) (HPC) 108 % of control | dose: 200.0 mg/kg/injection, schedule: Q04DX002 (ip), vehicle: Klucel (hydroxypropylcellulose) (HPC) 101 % of control | dose: 400.0 mg/kg/injection, schedule: Q04DX002 (ip), vehicle: Klucel (hydroxypropylcellulose) (HPC) 105 % of control

CCCn1cnc2c(=S)nc(N)[nH]c21
active: dose: 5.0 mg/kg/injection, schedule: Q01DX Z (ip), vehicle: methylcellulose (MC) 152 % of control
inactive: dose: 0.94 mg/kg/injection, schedule: Q01DX Z (ip), vehicle: methylcellulose (MC) 105 % of control | dose: 1.88 mg/kg/injection, schedule: Q01DX Z (ip), vehicle: methylcellulose (MC) 122 % of control | dose: 3.3 mg/kg/injection, schedule: Q01DX Z (ip), vehicle: methylcellulose (MC) 121 % of control | dose: 3.75 mg/kg/injection, schedule: Q01DX Z (ip), vehicle: methylcellulose (MC) 108 % of control | dose: 7.5 mg/kg/injection, schedule: Q01DX Z (ip), vehicle: methylcellulose (MC) 101 % of control | dose: 15.0 mg/kg/injection, schedule: Q01DX Z (ip), vehicle: methylcellulose (MC) 105 % of control

CC(=O)OCC(OC(C)=O)C(OC(C)=O)C(OC(C)=O)C(/C=N/NC(N)=S)=N/NC(N)=S (stereo not given)
inactive: dose: 100.0 mg/kg/injection, schedule: Q01DX009 (ip), vehicle: other 95 % of control | dose: 100.0 mg/kg/injection, schedule: Q04DX003 (ip), vehicle: other 98 % of control | dose: 200.0 mg/kg/injection, schedule: Q01DX009 (ip), vehicle: other 91 % of control | dose: 200.0 mg/kg/injection, schedule: Q04DX003 (ip), vehicle: other 103 % of control | dose: 400.0 mg/kg/injection, schedule: Q04DX003 (ip), vehicle: other 103 % of control

O=C(O)C(O)(C1CCCCC1)C1CCC2CCC3CCCC1C32 (stereo not given)
inactive: dose: 100.0 mg/kg/injection, schedule: Q01DX009 (ip), vehicle: saline with Tween-80 87 % of control

Nc1cc(C(=O)O)[nH]c(=O)n1
inactive: dose: 100.0 mg/kg/injection, schedule: Q01DX Z (ip), vehicle: methylcellulose (MC) 97 % of control

O=C(Nc1ccccc1)Nc1cccc2ccccc12
inactive: dose: 100.0 mg/kg/injection, schedule: Q04DX002 (ip), vehicle: gum acacia 102 % of control | dose: 200.0 mg/kg/injection, schedule: Q04DX002 (ip), vehicle: gum acacia 94 % of control | dose: 400.0 mg/kg/injection, schedule: Q04DX002 (ip), vehicle: gum acacia 94 % of control

COc1ccc2[nH]c3c(C)c4c(c(C)c3c2c1)CN(C)CC4
inactive: dose: 29.0 mg/kg/injection, schedule: Q01DX Z (ip), vehicle: saline 96 % of control | dose: 44.0 mg/kg/injection, schedule: Q01DX Z (ip), vehicle: saline 98 % of control | dose: 66.0 mg/kg/injection, schedule: Q01DX Z (ip), vehicle: saline 102 % of control | dose: 100.0 mg/kg/injection, schedule: Q01DX001 (ip), vehicle: saline 105 % of control | dose: 100.0 mg/kg/injection, schedule: Q01DX Z (ip), vehicle: saline 98 % of control | dose: 150.0 mg/kg/injection, schedule: Q01DX Z (ip), vehicle: saline 100 % of control | dose: 200.0 mg/kg/injection, schedule: Q01DX001 (ip), vehicle: saline 100 % of control | dose: 400.0 mg/kg/injection, schedule: Q01DX001 (ip), vehicle: saline 102 % of control

C=C(C)c1cc2c(cc1O)OCC2C (stereo not given)
inactive: dose: 50.0 mg/kg/injection, schedule: Q01DX009 (ip), vehicle: Klucel (hydroxypropylcellulose) (HPC) 101 % of control | [1] 92 % of control and 96 % of control | [2] 107 % of control | [3] 86 % of control and 89 % of control | [4] 94 % of control | [5] 96 % of control | [6] 94 % of control

CCOP(=S)(N1CC1C)N1CC1C (stereo not given)
inactive: dose: 25.0 mg/kg/injection, schedule: Q01DX Z (ip), vehicle: carboxymethylcellulose (CMC) 103 % of control | dose: 50.0 mg/kg/injection, schedule: Q01DX Z (ip), vehicle: carboxymethylcellulose (CMC) 105 % of control | dose: 100.0 mg/kg/injection, schedule: Q01DX Z (ip), vehicle: carboxymethylcellulose (CMC) 108 % of control | dose: 200.0 mg/kg/injection, schedule: Q01DX Z (ip), vehicle: carboxymethylcellulose (CMC) 121 % of control

S=c1[nH]nc(Nc2ccccc2Cl)s1
inactive: [1] 97 % of control | [3] 98 % of control | [5] 109 % of control

NC(N)=Nc1ccccc1 (tested in a mixture with another compound)
inactive: dose: 100.0 mg/kg/injection, schedule: Q04DX003 (ip), vehicle: saline 100 % of control | dose: 200.0 mg/kg/injection, schedule: Q04DX003 (ip), vehicle: saline 100 % of control

CN(C)Cc1cc(C(C)(C)C)ccc1-c1ccc(C(C)(C)C)cc1CN(C)C
inactive: dose: 12.5 mg/kg/injection, schedule: Q01DX009 (ip), vehicle: gum acacia 91 % of control | dose: 25.0 mg/kg/injection, schedule: Q01DX009 (ip), vehicle: gum acacia 96 % of control | dose: 50.0 mg/kg/injection, schedule: Q01DX009 (ip), vehicle: gum acacia 86 % of control

NC(CNC(=O)OCc1ccccc1)=NCC(=O)O
inactive: dose: 25.0 mg/kg/injection, schedule: Q04DX003 (ip), vehicle: saline with Tween-80 94 % of control | dose: 50.0 mg/kg/injection, schedule: Q04DX003 (ip), vehicle: saline with Tween-80 89 % of control | dose: 100.0 mg/kg/injection, schedule: Q04DX003 (ip), vehicle: saline with Tween-80 89 % of control and 92 % of control

Cc1ccc2c(c1)C(c1ccccc1)(c1ccccc1)N(c1ccccc1)S2(=O)=O
inactive: [7] 94 % of control | [8] 91 % of control | [9] 100 % of control

CN=C(NC)c1ccc(NC(=O)c2cccc(C(=O)Nc3ccc(C(=NC)NC)cc3)c2)cc1
inactive: dose: 15.0 mg/kg/injection, schedule: Q01DX Z (ip), vehicle: saline 110 % of control | dose: 30.0 mg/kg/injection, schedule: Q01DX Z (ip), vehicle: saline 119 % of control | dose: 60.0 mg/kg/injection, schedule: Q01DX Z (ip), vehicle: saline 86 % of control

CN(C)C(=S)Oc1ccccc1C1(C)OCCO1
inactive: dose: 100.0 mg/kg/injection, schedule: Q01DX001 (ip), vehicle: saline with Tween-80 97 % of control | dose: 200.0 mg/kg/injection, schedule: Q01DX001 (ip), vehicle: saline with Tween-80 98 % of control | dose: 400.0 mg/kg/injection, schedule: Q01DX001 (ip), vehicle: saline with Tween-80 96 % of control

CC(=O)N(N=O)c1ccc(N(N=O)C(C)=O)cc1
inactive: [10] 106 % of control | [11] 97 % of control | [12] 112 % of control

FC1(F)SC2c3ccccc3CCC2C1(F)F (stereo not given)
inactive: [2] 96 % of control | [4] 95 % of control | [6] 102 % of control

C=C(C)C1CCC2(C(=O)OC)CCC3(C)C(CCC4C5(C)CCC(OC6CCCCO6)C(C)(C)C5CCC43C)C12 (stereo not given)
inactive: dose: 25.0 mg/kg/injection, schedule: Q04DX002 (ip), vehicle: saline with Tween-80 86 % of control | dose: 100.0 mg/kg/injection, schedule: Q04DX002 (ip), vehicle: saline with Tween-80 86 % of control

COc1ccc(OC)c(NC(=O)c2cccc(N)c2)c1
inactive: [7] 111 % of control | [8] 105 % of control | [9] 103 % of control

CC[N+]1(CC)CCC(OC(=O)C(O)(c2ccccc2)c2ccccc2)C1 (stereo not given)
inactive: [10] 97 % of control | [11] 92 % of control | [12] 97 % of control | dose: 40.0 mg/kg/injection, schedule: Q01DX001 (ip), vehicle: saline 97 % of control | dose: 80.0 mg/kg/injection, schedule: Q01DX001 (ip), vehicle: saline 103 % of control
